Data: paper PMC11032351, “Epigenetic modulation through BET bromodomain inhibitors as a novel therapeutic strategy for progranulin-deficient frontotemporal dementia” (Scientific Reports, 2024)
Where a SMILES comes first, the peptide text is derived from it. [ ]: non-standard residue; d: D form. ξ: configuration not given here. Aoe(9ξ) = N[C@@H](CCCCCC(=O)C1CO1)C(=O)O; dPip = O=C(O)[C@H]1CCCCN1

Key:
PGRN protein levels = assay: PGRN quantification (Jess) in human NPCs; format: cell-based; details: 24 h; for enhancement of PGRN protein levels: 100 nM
Experimental: PGRN capillary gel electrophoresis experiments were performed using Jess (Bio-Techne) and data were processed and analyzed using Compass for Simple Western software (version 6.0). Runs were conducted using EZ Standard Pack 1 12-230 kDa (Bio-Techne PS-ST01EZ-8), 12-230 kDa pre-filled plates (PS-PP03), 12-230 kDa separation module (SMW004), anti-rabbit HRP detection ([…]-001), and total protein detection modules (DM-TP01, biotin labeling reagent 042-973) according to the manufacturer's instructions, and with anti-PGRN primary (Abcam ab208777) diluted 1:50 in milk-free antibody dilution buffer (043-524). […] All intensity quantifications are normalized to the total protein assay quantification unless otherwise indicated. NPCs were cultured normally in 6-well plates as described previously. Upon reaching confluency, DMSO or MLN-4924 (Cayman #15,217, 10 mM stock in DMSO) were diluted 1:5000 into NPC media with growth factors. 1 mL of media was aspirated from the cell cultures, and 1 mL of MLN-4924 or DMSO dilutions were then added to respective wells (final well concentration: 1 μM MLN-4924 in select wells, 0.01% DMSO for all wells). Plates returned to the incubator. […] Plates returned to the incubator. After 4 h, to the indicated wells is directly added 1 μL 2 mM mivebresib (MedChem Express HY-100015) in DMSO for a final concentration of 1 μM, or 1 μL DMSO. All plates were returned to the incubator overnight. The next day, 24 h from the addition of mivebresib, plates were removed from the incubator, and all wells were washed with 2 mL PBS, and then lysed in 300 μL M-PER lysis buffer with protease inhibitors. Cells were allowed to lyse for 15 min at 4 °C with light nutation, and then lysate was transferred to a 1.5-mL Eppendorf tube which was then spun down at 20 k rcf at 4 °C for 10 min. 200 μL of supernatant was then transferred to a fresh, labeled Eppendorf rube, which was then stored at - 20 °C prior to further analysis. Sample concentration was quantified using the BCA assay as described above, and normalized to 250 μg/mL in M-PER lysis buffer prior to PGRN quantification using the Jess. NPCs were cultured normally as described previously. 6-well plates were seeded at 300,000 cells/well in 2 mL of NPC media with EGF, bFGF, and heparin as described above. Cells were allowed to grow to confluency for three nights at 37 °C with 5% CO2. […] These solutions were then diluted 1:10 in NPC media with growth factors containing 0.2% DMSO to make 100 nM compound solutions. Treatment wells were washed with 2 mL PBS prior to addition of 2 mL NPC media with growth factors containing compound (or DMSO only) at indicated concentrations (3 replicates per condition, 6 DMSO replicates). Plates were then allowed to incubate at 37 °C with 5% CO2 for 24 h. After 24 h, cells were removed from the incubator, washed with 1 mL PBS, and then lysed with 500 μL M-PER lysis buffer (Thermo Fisher #78,501) with 1 cOmplete Mini, EDTA-free protease inhibitor added (Sigma-Aldrich#11,836,170,001) per 15 mL lysis buffer. Plates were allowed to nutate at 4 °C for 15 min before transferring the lysate to 1.5 mL Eppendorf tubes, which were then spun down at 20,000 rcf at 4 °C for 10 min. 400 μL of the supernatant was then transferred to fresh 1.5-mL Eppendorf tubes, which were then frozen down at - 80 °C prior to further use. Samples were removed from the - 80 °C and concentrations were determined via BCA assay (Thermo Scientific #23,227) using a pre-diluted BSA standard (Life Technologies #23,208) on a 96-well polystyrene plate (Thermo Fisher #12,565,500). Samples were diluted to 0.25 mg/mL using M-PER lysis buffer prior to PGRN quantification using the Jess. NPCs were cultured as described above, and seeded onto coated 24-well plates at 150,000 cells/well in 1 mL NPC media with growth factors. Plates were allowed to grow to ~ 100% confluency for three nights at 37 °C with 5% CO2. […] Plates were allowed to incubate overnight at 37 °C with 5% CO2 for 24 h. […]

GRN mRNA = assay: qPCR of GRN mRNA in human NPCs (enhancer screen and follow-up); format: cell-based; details: human NPCs, 24 h, relative to DMSO
Experimental: All compounds were purchased from commercial vendors. All compounds were made at 1000 × stocks in DMSO (Sigma Aldrich #D2438), except for sodium valproate, which was dissolved in ddH2O. NPCs and neurons were generated and maintained as described above. For treatment, the stock compounds were diluted 1:1000 in NPC media (final DMSO concentration 0.1%), which was then applied to confluent NPCs or 18-day differentiated neurons derived from confluent NPC cultures for indicated time periods.
RNA was generated from each well of a 6-well treated plate of NPCs or neurons. First, media from each well was aspirated, and washed with 1 mL of dPBS. Wells were then lysed with 1 mL TRIzol Reagent (ThermoFisher #11,596,026). Wells were then incubated at room temperature for 5 min, and then RNA was extracted using the DirectZol RNA MiniPrep Kit (Zymo Research #R2052). RNA was stored at − 80 °C until further use. cDNA was generated using the High-Capacity cDNA synthesis Kit with RNase inhibitor (ThermoFisher #4,368,814) using 1000–1200 ng RNA per reaction. cDNA was either used immediately or stored at -20 °C until use, where it was then diluted 1:4 with DNase/RNase-free water (Invitrogen #10,977–015).
qPCR was conducted using the Roche 480 Light Cycler in a 384-well plate. To each well was added 5 μL of TaqMan 2X Gene Expression Master Mix (ThermoFisher #4,369,510), 0.5 μL of 20X TaqMan primer probe (ThermoFisher, GRN: Hs00963707_g1, GAPDH: Cat.#432924E), 0.5 μL of DNase/RNase-free H2O, and 4 μL of above diluted cDNA. Results were normalized to GAPDH, and replicate mean values and standard error of the mean are reported.

PGRN-Luc = assay: HMC3 PGRN-luciferase reporter assay; format: cell-based, human; details: HMC3 PGRN-Luc cells, 20 h
Experimental: HMC3 PGRN-Luc cells were trypsinized from confluent T-75 flasks and re-suspended in HMC-3 media at 150,000–200,000 cells/mL. 30 µL of cell suspension was then seeded onto each well of black, 384-well clear-bottom plates (Corning 3712) using the Multidrop Combi (Thermo Fisher). Cells were allowed to adhere to plates in the incubator at 37 °C/5% CO2 for 6–8 h. After 6–8 h, compounds were added to each well using the D300e (Tecan) compound dispenser, and all wells were DMSO-normalized (0.3%). Cells were allowed to incubate with compounds for indicated timeframes.
Plates were removed from the incubator and allowed to cool to RT. 15 µL of media was removed from each well using a multichannel pipette and added to separate Corning 3712 plates for a read of “secreted” PGRN. To both the media-containing plates as well as the cell-containing plates (with 15 µL media remaining) is then added 15 µL of active luminescence reagent (Thermo 18,636) which was generated according to manufacturer’s instructions. Plates were allowed to nutate at RT for 15 min prior to reading using the EnVision (PerkinElmer). For calculation of the internal PGRN-Luc signal, the secreted signal (15 µL media) was subtracted from the signal of the cell-containing plates (with 15 µL media remaining). For “total” PGRN-Luc signal, a sample of media was not aliquoted into a separate plate, and instead, 30 µL of active luminescence reagent was added directly to each well.
For the mivebresib and panobinostat time-course experiment, the above procedure was followed, with the exception that cells were seeded at 66,600 cells/mL in 30 µL media, and allowed to grow overnight prior to compound addition for the indicated timeframes.

| Compound | GRN Fold-change (Norm. to GAPDH) ± Std. Error (GRN mRNA; dose 10 µM) | other results |
| --- | --- | --- |
| COCc1nc2cnc3cc(-c4c(C)noc4C)c(OC[C@H]4CCNC4)cc3c2n1[C@H](C)c1ccccc1 [iBET-BD1] |  | enhancement of PGRN protein levels (PGRN protein levels): unable to enhance PGRN protein levels |
| Cn1cc(-c2ccncc2)c(-c2ccc(OCc3ccc4ccccc4n3)cc2)n1 [PF-2545920] | 1.29 ± 0.16 |  |
| Cc1c(OCC(F)(F)F)ccnc1C[S+]([O-])c1nc2ccccc2[nH]1 (stereo not shown) [Lanosoprazole] | 1.37 ± 0.23 |  |
| CCOC(=O)CCNc1cc(N2CCc3ccccc3CC2)nc(-c2ccccn2)n1 [GSK-J4] | 0.76 ± 0.03 |  |
| Cc1cc(C)c(CNC(=O)c2cc(-c3ccc(CN4CCOCC4)cc3)cc3c2cnn3C2CCCC2)c(=O)[nH]1 [EPZ005687] | 1.18 ± 0.10 |  |
| N#CC[C@H](C1CCCC1)n1cc(-c2ncnc3[nH]ccc23)cn1 [Ruxolitinib] | 1.26 ± 0.04 |  |
| (-)-Eseroline fumarate | 1.10 ± 0 | GRN Fold-change (Norm. to GAPDH) ± Std. Error (GRN mRNA; dose 25 µM): 0.79 ± 0.46 |
| CC(/C=C/C(=O)NO)=C\[C@@H](C)C(=O)c1ccc(N(C)C)cc1 [trichostatin A] |  | enhancement of internal PGRN-Luc signal (PGRN-Luc): able to enhance both internal and secreted PGRN at sub-µM concentrations; enhancement of secreted PGRN-Luc signal (PGRN-Luc): able to enhance both internal and secreted PGRN at sub-µM concentrations |
| CCn1cc(-c2ccnc3[nH]c(-c4cccc(CN(C)C)c4)cc23)c(-c2ccc(NC(=O)N(C)C)cc2)n1 [GSK1070916] |  | GRN Fold-change (Norm. to GAPDH) ± Std. Error (GRN mRNA; dose 1 µM): 1.45 ± 0 |
| COC1CCC(C(=O)c2ccc3nc4c(cc3c2)CCCO4)CC1 (stereo not shown) [JNJ16259685] | 1.00 ± 0.10 |  |
| CCOC(=O)Nc1cc(-c2ccc(C)c(NS(C)(=O)=O)c2)nn2c(C)nnc12 [Bromosporine, bromosporine] | 3.44 ± 0.25 | GRN Fold-change (Norm. to GAPDH) ± Std. Error (GRN mRNA; dose 10 µM, listed as bromosporine): active enhancers of GRN mRNA |
| CCNC(=O)c1cc2c(-c3cc(C(C)(C)O)ccc3Oc3c(C)cc(F)cc3C)cn(C)c(=O)c2[nH]1 [ABBV-744] |  | enhancement of PGRN protein levels (PGRN protein levels): ~ 30%; PGRN protein levels, dose-response (PGRN protein levels; various doses): mid to high nM concentrations were sufficient to enhance PGRN protein levels |
| NNCCc1ccc(NC(=O)CCCc2ccccc2)cc1 [Bizine] | 0.92 ± 0.12 |  |
| c1ccc([C@@H]2C[C@H]2NC2CCNCC2)cc1 [GSK-LSD1] | 0.96 ± 0.11 |  |
| CNC(=O)Oc1ccc2c(c1)[C@]1(C)CCN(C)[C@@H]1N2C [Eserine] |  | GRN Fold-change (Norm. to GAPDH) ± Std. Error (GRN mRNA; dose 25 µM): 0.73 ± 0.15 |
| O=C(CCCCC[C@@H]1NC(=O)[C@H]2CCCCN2C(=O)[C@H](Cc2ccccc2)NC(=O)[C@H](Cc2ccccc2)NC1=O)C1CO1 (stereo partly shown) [trapoxin A] (cyclo(FF[dPip][Aoe(9ξ)])) |  | enhancement of internal PGRN-Luc signal (PGRN-Luc): able to enhance both internal and secreted PGRN at sub-µM concentrations; enhancement of secreted PGRN-Luc signal (PGRN-Luc): able to enhance both internal and secreted PGRN at sub-µM concentrations |
| CC(=O)Nc1ccc(C(=O)Nc2ccccc2N)cc1 [CI-994] |  | enhancement of secreted PGRN-Luc signal (PGRN-Luc): either weakly or entirely unable to enhance secreted PGRN |
| Cc1c[nH]c(-c2cnc(NCCNc3ccc(C#N)cn3)nc2-c2ccc(Cl)cc2Cl)n1 [CHIR-99021] | 0.79 ± 0.06 |  |
| O=C(NC1CC1)c1cc(-c2cccs2)on1 [Compound Z220650400] | 1.17 ± 0.10 |  |
| COc1cc2nc(N3CCCN(C)CC3)nc(NC3CCN(Cc4ccccc4)CC3)c2cc1OC [BIX01294] |  | GRN Fold-change (Norm. to GAPDH) ± Std. Error (GRN mRNA; dose 1 µM): 0.80 ± 0.04 |
| O=C(CCCCCCNC(=O)c1cnc(N(c2ccccc2)c2ccccc2)nc1)NO [ACY-1215] | 3.63 ± 0.57 |  |
| O=C(Nc1c(Cl)cncc1Cl)c1ccc(OC(F)F)c(OCC2CC2)c1 [Roflumilast] | 1.01 ± 0.09 |  |
| CN(C)Cc1c(C(=O)NCCOc2ccc(C(=O)NO)cc2)oc2ccccc12 [PCI-24781] |  | GRN Fold-change (Norm. to GAPDH) ± Std. Error (GRN mRNA; dose 1 µM): 3.68 ± 0.27 |
